Patent US20110028447A1, “INDAZOLE DERIVATIVES” (Pfizer Inc., priority 2008, published 2011)
Like-named read-outs stand apart in the source and are kept apart here.

Columns and labels:
[1] = target: T1, human CB1 receptor (Homo sapiens, UniProt P21554); test: [35S] GTPγS binding on membranes of CHO cells expressing the human CB1 receptor (agonism); format: biochemical; parameters: expressed in transfected cells; membrane preparation
In short: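 Membranes from human CB1-expressing CHO cells (5 μg/well) incubated with test compound and [35S]GTPγS in 50 mM Tris pH 7.4, 100 mM NaCl, 3 mM MgCl2, 0.2 mM EGTA, 0.04% BSA for 45 min at 37 °C. Bound label collected by filtration, scintillation counted; EC50 from curve fits.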

[2] = target: T1, human CB1 receptor; test: Human CB1 receptor binding, [3H] CP-55,940 displacement on HEK cell membranes; parameters: expressed in transfected cells; host or cells: HEK cells, doxycycline-induced; membrane preparation
In short: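 Membranes from doxycycline-induced HEK cells expressing human CB1 incubated 60 min at room temperature with [3H] CP-55,940 (final […]) in 50 mM Tris pH 7.4, 100 mM NaCl, 3 mM MgCl2, 0.2 mM EGTA, 0.04% BSA. Nonspecific binding defined with 50 μM WIN-55,212-2; filtration and scintillation counting gave EC50 and Ki.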

[3] = GTPγS EC50, human CB1, CHO cell membranes
[4] = human CB1, CHO cell membranes, read-out: GTPγS EC50

T1 sequence (P21554 whole entry): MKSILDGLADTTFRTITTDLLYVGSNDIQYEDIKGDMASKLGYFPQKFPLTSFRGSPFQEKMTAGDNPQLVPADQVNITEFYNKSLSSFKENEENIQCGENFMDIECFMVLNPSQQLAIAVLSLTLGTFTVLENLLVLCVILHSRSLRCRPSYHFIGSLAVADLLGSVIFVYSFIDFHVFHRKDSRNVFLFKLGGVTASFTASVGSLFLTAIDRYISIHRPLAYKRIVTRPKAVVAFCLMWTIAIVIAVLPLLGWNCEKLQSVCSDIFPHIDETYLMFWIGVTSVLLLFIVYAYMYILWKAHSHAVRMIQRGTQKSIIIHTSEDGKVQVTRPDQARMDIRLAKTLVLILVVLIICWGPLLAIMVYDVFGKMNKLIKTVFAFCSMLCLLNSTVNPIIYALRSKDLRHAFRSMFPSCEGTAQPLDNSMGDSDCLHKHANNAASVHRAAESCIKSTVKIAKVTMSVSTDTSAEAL

Structure (SMILES) | EC50 [1, 3] | Ki ([2]; CB1 Ki) | EC50 [1, 4] | Ki ([2]; read-out: CB1 Ki)
CC(C)(C)[C@H](NC(=O)c1nn(Cc2ccc(C#N)cc2)c2c(F)cccc12)C(=O)N1CC(C(N)=O)C1 [Example 352] | 49.5 nM | 4.14 nM | – | –
CC(C)(C)C(NC(=O)c1nn(Cc2ccc(F)cc2)c2ccccc12)C(=O)N1CCC(O)CC1 (stereo not drawn) [Example 133] | 6.35 nM | 0.55 nM | – | –
CC(C)(C)[C@H](NC(=O)c1nn(Cc2ccccc2)c2ncccc12)C(N)=O [Example 12, N-[(1S)-1-(aminocarbonyl)-2,2-dimethylpropyl]-1-benzyl-1H-pyrazolo[3,4-b]pyridine-3-carboxamide] | 302 nM | 11.5 nM | – | –
CC(C)(C)[C@H](NC(=O)c1nn(Cc2ccc(F)cc2)c2ccccc12)C(=O)NC(CO)CO [Example 241] | 5.72 nM | 1.65 nM | – | –
CCOC(=O)c1nc(CNC(=O)C(NC(=O)c2nn(Cc3ccc(F)cc3)c3ccccc23)C(C)(C)C)no1 (stereo not drawn) [Example 135] | – | – | 14.3 nM | 3.47 nM
CC(C)(C)C(NC(=O)c1nn(Cc2ccc(C#N)cc2F)c2ccccc12)C(=O)NCC(N)=O (stereo not drawn) [Example 92] | 265 nM | 14.1 nM | – | –
CC(C)(C)[C@H](NC(=O)c1nn(Cc2ccc(F)cc2)c2ccccc12)C(=O)NCCNS(=O)(=O)c1ccc(C#N)cc1 [Example 266] | – | – | 4.34 nM | 0.94 nM
CC(C)(C)[C@H](NC(=O)c1nn(Cc2ccc(F)cc2)c2ccccc12)C(=O)N1CCC(F)(F)CC1 [Example 332] | 27.3 nM | 15 nM | – | –
CC(C)(C)[C@H](NC(=O)c1nn(Cc2ccc(C#N)cc2)c2cc(F)ccc12)C(=O)NCC(F)(F)F [Example 310] | 2.1 nM | 1.48 nM | – | –
CC(C)(C)[C@H](NC(=O)c1nn(Cc2ccc(F)cc2)c2c(F)cc(Cl)cc12)C(=O)NCC(N)=O [Example 498] | 38.3 nM | 16.4 nM | – | –
CC(C)(C)C(NC(=O)c1nn(Cc2ccc(F)cc2)c2ccccc12)c1nnc(C(N)=O)o1 (stereo not drawn) [Example 122] | – | – | 13.1 nM | 0.73 nM
CC(C)(C)[C@H](NC(=O)c1nn(Cc2ccc(F)cc2)c2ccccc12)C(=O)NCC(=O)Nc1nncs1 [Example 519] | – | – | 5.77 nM | 0.95 nM
CC(C)(C)[C@H](NC(=O)c1nn(Cc2ccc(C#N)cc2F)c2c(F)cccc12)C(=O)NCc1nnc(C(N)=O)o1 [Example 375] | – | – | 31.4 nM | 7.92 nM
CC(C)(C)[C@H](NC(=O)c1nn(Cc2ccc(F)cc2)c2ccccc12)C(=O)NCCc1nnc(C(N)=O)o1 [Example 231] | – | – | 5.12 nM | 2.25 nM
CC(C)(C)[C@H](NC(=O)c1nn(Cc2ccc(C(F)(F)F)cc2)c2ccccc12)C(N)=O [Example 254] | 153 nM | 12.3 nM | – | –
CC(C)(C)[C@H](NC(=O)c1nn(Cc2ccc(C#N)cc2)c2c(F)cccc12)C(N)=O [Example 111] | 9.73 nM | 0.72 nM | – | –
CC(C)(C)[C@H](NC(=O)c1nn(Cc2ccc(C#N)cc2)c2ccccc12)C(=O)N1CCOCC1 [Example 243] | 91.3 nM | 11.3 nM | – | –
CC(C)C(NC(=O)c1nn(Cc2ccccc2F)c2ccccc12)C(N)=O (stereo not drawn) [Example 17] | 149 nM | 4.69 nM | – | –
Cc1cc2c(C(=O)N[C@H](C(=O)NC[C@H](O)CO)C(C)(C)C)nn(Cc3ccc(F)cc3)c2cc1F [Example 510] | 24.8 nM | 6.87 nM | – | –
CC(C)(C)[C@H](NC(=O)c1nn(Cc2ccc(C#N)cc2)c2c(F)cccc12)C(=O)NCCNS(=O)(=O)C1CC1 [Example 115] | – | – | 8.72 nM | 1.09 nM
CC(C)(C)[C@H](NC(=O)c1nn(Cc2ccc(C#N)cc2)c2c(F)cccc12)C(=O)NCc1nnc(C(N)=O)o1 [Example 116] | – | – | 49.6 nM | 13.5 nM
Cn1nc(CNC(=O)[C@@H](NC(=O)c2nn(Cc3ccc(F)cc3)c3ccccc23)C(C)(C)C)cc1C1CCC1 [Example 416] | – | – | 47.1 nM | 9.26 nM
Cc1cc(CNC(=O)c2nn(Cc3ccc(C#N)cc3)c3ccccc23)c(C)o1 [Example 68] | 90.1 nM | 4.61 nM | – | –
CC(C)(C)[C@H](NC(=O)c1nn(Cc2ccc(C#N)cc2F)c2ccccc12)C(=O)NCCNS(=O)(=O)c1ccc(C#N)cc1 [Example 265] | – | – | 82 nM | 13.1 nM
CC(C)(C)C(NC(=O)c1nn(Cc2ccc(C#N)cc2F)c2ccccc12)C(N)=O (stereo not drawn) [Example 86] | 34.2 nM | 2.75 nM | – | –
CC(C)(C)C(NC(=O)c1nn(Cc2ccc(F)cc2)c2ccccc12)C(=O)NCC(N)=O (stereo not drawn) [Example 82] | 22.1 nM | 1.12 nM | – | –
CC(C)(C)[C@H](NC(=O)c1nn(Cc2ccc(C#N)cc2F)c2c(F)c(F)ccc12)C(N)=O [Example 358] | 7.46 nM | 4.89 nM | – | –

Structure (SMILES) | EC50 [1, 3] | Ki ([2]; CB1 Ki) | EC50 [1, 4] | Ki ([2]; read-out: CB1 Ki)
CC(C)(C)[C@H](NC(=O)c1nn(Cc2ccc(F)cc2)c2c(F)c(F)ccc12)C(N)=O [Example 282] | 0.78 nM | 0.17 nM | – | –
CC(C)(C)[C@H](NC(=O)c1nn(Cc2ccc(F)cc2)c2c(F)c(F)ccc12)C(=O)NC(CO)CO [Example 325] | 5.33 nM | 1.97 nM | – | –
CC(C)(C)C(NC(=O)c1nn(Cc2ccc(C#N)cc2)c2ccccc12)C(=O)N1CCC(O)CC1 (stereo not drawn) [Example 134] | 326 nM | 32.7 nM | – | –
CC(C)(C)[C@H](NC(=O)c1nn(Cc2ccc(F)cc2)c2ccccc12)C(=O)NCCOc1ccnc(N)n1 [Example 479] | – | – | 131 nM | 13.4 nM
CC(C)(C)C(NC(=O)c1nn(Cc2ccc(F)cc2)c2ccccc12)C(=O)NC1(CO)CC1 (stereo not drawn) [Example 160] | 32.3 nM | 1.45 nM | – | –
CC(C)(C)[C@H](NC(=O)c1nn(Cc2ccc(F)cc2)c2c(F)c(F)ccc12)C(=O)NCc1nnc(C(N)=O)o1 [Example 328] | – | – | 1.7 nM | 0.71 nM
CC(C)(C)C(NC(=O)c1nn(Cc2ccc(C#N)cc2)c2ccc(F)cc12)C(N)=O (stereo not drawn) [Example 163] | 180 nM | 4.45 nM | – | –
CC(C)(C)C(NC(=O)c1nn(Cc2ccc(F)cc2)c2c(Cl)cccc12)C(=O)NCCO (stereo not drawn) [Example 183] | 0.83 nM | 0.26 nM | – | –
CC(C)(C)C(NC(=O)c1nn(Cc2ccc(F)cc2)c2c(F)cccc12)C(=O)NCCNS(=O)(=O)C1CC1 (stereo not drawn) [Example 186] | – | – | 1.03 nM | 0.19 nM
CC(C)(C)[C@H](NC(=O)c1nn(Cc2ccc(F)cc2)c2ccccc12)C(=O)NCCN1Cc2ncccc2C1=O [Example 500] | – | – | 47.4 nM | 10.1 nM
CC(C)(C)C(NC(=O)c1nn(Cc2ccc(F)cc2)c2ccccc12)C(=O)NCC(O)CO (stereo not drawn) [Example 77] | 48.1 nM | 5.39 nM | – | –
CC(C)(C)[C@H](NC(=O)c1nn(Cc2ccc(C#N)cc2)c2cc(F)ccc12)C(N)=O [Example 300] | 121 nM | 5.85 nM | – | –
CC(C)(C)[C@H](NC(=O)c1nn(Cc2ccc(F)cc2)c2ccccc12)C(=O)N1CCCC(O)C1 (stereo partly drawn) [Example 251] | 2.33 nM | 0.51 nM | – | –
CC(C)(C)C(NC(=O)c1nn(Cc2ccc(F)cc2)c2ccccc12)c1nnc(CC(N)=O)o1 (stereo not drawn) [Example 120] | – | – | 40 nM | 3.05 nM
CC(C)(C)C(NC(=O)c1nn(Cc2ccc(C#N)cc2)c2c(Cl)cccc12)C(=O)NCCO (stereo not drawn) [Example 199] | 8.94 nM | 1.32 nM | – | –
CC(C)(C)[C@H](NC(=O)c1nn(Cc2ccc(C#N)cc2F)c2c(F)c(F)ccc12)C(=O)NC1CC1 [Example 374] | 12.5 nM | 7.33 nM | – | –
CC(C)(C)[C@H](NC(=O)c1nn(Cc2ccccc2)c2ccc(-c3cccnc3)cc12)C(N)=O [Example 8, N-[(1S)-1-(Aminocarbonyl)-2,2-dimethylpropyl]-1-benzyl-5-pyridin-3-yl-1H-indazole-3-carboxamide] | – | – | 209 nM | 118 nM
CC(C)(C)[C@H](NC(=O)c1nn(Cc2ccc(F)cc2)c2ccccc12)C(=O)N1CCC[C@@H]1CO [Example 307] | 1.56 nM | 1.27 nM | – | –
CC(C)(C)[C@H](NC(=O)c1nn(Cc2ccc(F)cc2)c2ccccc12)C(=O)NCC1=NCCN1 [Example 305] | 86.4 nM | 18 nM | – | –
CC(C)(C)[C@H](NC(=O)c1nn(Cc2ccc(F)cc2)c2ccccc12)C(=O)NCc1nnc(C(=O)NCCO)o1 [Example 462] | – | – | 13 nM | 2.29 nM
CC(C)(C)[C@H](NC(=O)c1nn(Cc2ccc(F)cc2)c2ccccc12)C(=O)N[C@H]1C[C@@H](C(N)=O)C1 [Example 398] | 26.6 nM | 5.8 nM | – | –
CC(C)(C)C(NC(=O)c1nn(Cc2ccc(F)cc2)c2c(Cl)cccc12)C(=O)NCC(N)=O (stereo not drawn) [Example 185] | 10.2 nM | 0.51 nM | – | –
COC(=O)[C@@H](CO)NC(=O)[C@@H](NC(=O)c1nn(Cc2ccc(F)cc2)c2ccccc12)C(C)(C)C [Example 234] | 36.1 nM | 13.4 nM | – | –
CC(C)(C)[C@H](NC(=O)c1nn(Cc2ccc(C#N)cc2)c2c(F)cccc12)C(=O)N1Cc2ccccc2C1 [Example 213] | – | – | 57.7 nM | 15.7 nM
CC(C)(C)C(NC(=O)c1nn(Cc2ccc(C#N)cc2)c2ccccc12)C(N)=O (stereo not drawn) [Example 28] | 121 nM | 2.05 nM | – | –
CC(C)(C)[C@H](NC(=O)c1nn(Cc2ccc(F)cc2)c2ccc(Cl)cc12)C(=O)NCCS(N)(=O)=O [Example 432] | 101 nM | 15.7 nM | – | –
CC(C)(C)[C@H](NC(=O)c1nn(Cc2ccc(C#N)cc2)c2ccccc12)C(=O)NC1CC1 [Example 65] | 90 nM | 3.85 nM | – | –
